Test results taken from patent US6869589B1, “Cryptate compounds and methods for diagnosis and therapy” (Australian Nuclear Science & Technology Organization, priority 1999, dated 2005).
Like-named read-outs stand apart in the source and are kept apart here.

Experiments:
[1] = Effect of pH on complexation of ^64Cu by compound (3), monitored by ITLC-SG; type: physicochemical
Experimental: The effect of pH on complexation of ^64Cu by compound (3) was investigated. Compound (3) was diluted into buffers of pH 3.0, 4.0, 5.0, 6.0, 7.0, 8.0 and 9.0. A sufficient amount of ^64Cu was added and the rate of complexation was monitored at (t=1, 2.5, 5, 10, 60 and 90 mins) (see method below) by Instant Thin Layer Chromatography (ITLC-SG). Complete complexation (>98%) was achieved within 1 min for all pH ≧4.0. The rate of complexation at pH 3.0 was slower. (FIG. 2).
Monitoring Complexation by ITLC-SG
ITLC-SG strips (10 cm×0.8 cm) were spotted with ˜1 μL of reaction mixture 1 cm from the bottom of the strip (origin) and were developed in a solvent containing 0.1 M sodium acetate (pH 4.5): ethanol=9:1. ^64Cu-compound (3) remains at the origin (Rf=0.0), and “free” ^64Cu appears at the solvent front (Rf=1.0).

[2] = mouse, in vivo
Experimental: (§1) The biodistribution of the ^64Cu complexes of compounds (1), (3) and (4) (0.10 ml intravenous injection) were evaluated in balb/c mice (5 animals per time point) at 3, 5, 10, 15, 20 and 30 minute time intervals. Biodistribution studies were performed in duplicate.

[3] = Biodistribution of ^64Cu complexes in balb/c mice; conditions: for Clearance of the complex (biodistribution, in words): if the ligand detaches from the antibody
Experimental: as §1

[4] = Serum stability of ^67Cu complex in human plasma at 37° C., size exclusion chromatography; type: in vitro ADME; conditions: first 174 hours
Experimental: Serum stability studies were conducted by incubating a ^67Cu complex of related species (4) in human plasma at 37° C. [drawing 11]
At various time intervals, the complex was separated from the plasma by size exclusion chromatography and the complex breakdown was assessed. […] (FIGS. 1a and 1b).

Compound: Nc1ccc(CNC23CNCCNCC(N)(CNCCNC2)CNCCNC3)cc1 [compound (3)]
- Time to complete complexation of ^64Cu ([1]; all pH ≧4.0): ≤ 1 min
- Complexation of ^64Cu (complete complexation) ([1]; all pH ≧4.0, within 1 min, ITLC-SG): > 98%
- Rate of complexation of ^64Cu ([1]; pH 3.0, compared with pH ≧4.0): slower
- Clearance of the complex (biodistribution, in words) [2]: clear rapidly from the system

Compound: Nc1ccc(CNC23CNCCNCC(N)(CNCCNC2)CNCCNC3)cc1.[64Cu+2] [^64Cu-labelled compound (3)]
- % injected dose per gram ([3]; BLADDER, 3 MIN): 11.36 % INJECTED DOSE PER GRAM
- % injected dose per gram ([3]; BLADDER, 5 MIN): 12.31 % INJECTED DOSE PER GRAM
- % injected dose per gram ([3]; BLADDER, 10 MIN): 14.36 % INJECTED DOSE PER GRAM
- % injected dose per gram ([3]; BLADDER, 15 MIN): 10.54 % INJECTED DOSE PER GRAM
- % injected dose per gram ([3]; BLADDER, 20 MIN): 13.45 % INJECTED DOSE PER GRAM
- % injected dose per gram ([3]; BLADDER, 30 MIN): 2.74 % INJECTED DOSE PER GRAM
- % injected dose per gram ([3]; BLOOD, 3 MIN): 7.74 % INJECTED DOSE PER GRAM
- % injected dose per gram ([3]; BLOOD, 5 MIN): 8.19 % INJECTED DOSE PER GRAM
- % injected dose per gram ([3]; BLOOD, 10 MIN): 5.23 % INJECTED DOSE PER GRAM
- % injected dose per gram ([3]; BLOOD, 15 MIN): 4.39 % INJECTED DOSE PER GRAM
- % injected dose per gram ([3]; BLOOD, 20 MIN): 3.05 % INJECTED DOSE PER GRAM
- % injected dose per gram ([3]; BLOOD, 30 MIN): 1.25 % INJECTED DOSE PER GRAM
- % injected dose per gram ([3]; BONE, 3 MIN): 1.68 % INJECTED DOSE PER GRAM
- % injected dose per gram ([3]; BONE, 5 MIN): 2.11 % INJECTED DOSE PER GRAM
- % injected dose per gram ([3]; BONE, 10 MIN): 1.29 % INJECTED DOSE PER GRAM
- % injected dose per gram ([3]; BONE, 15 MIN): 1.36 % INJECTED DOSE PER GRAM
- % injected dose per gram ([3]; BONE, 20 MIN): 1.11 % INJECTED DOSE PER GRAM
- % injected dose per gram ([3]; BONE, 30 MIN): 0.72 % INJECTED DOSE PER GRAM
- % injected dose per gram ([3]; GIT, 3 MIN): 2.66 % INJECTED DOSE PER GRAM
- % injected dose per gram ([3]; GIT, 5 MIN): 2.88 % INJECTED DOSE PER GRAM
- % injected dose per gram ([3]; GIT, 10 MIN): 1.80 % INJECTED DOSE PER GRAM
- % injected dose per gram ([3]; GIT, 15 MIN): 2.92 % INJECTED DOSE PER GRAM
- % injected dose per gram ([3]; GIT, 20 MIN): 1.05 % INJECTED DOSE PER GRAM
- % injected dose per gram ([3]; GIT, 30 MIN): 0.55 % INJECTED DOSE PER GRAM
- % injected dose per gram ([3]; HEART, 3 MIN): 2.79 % INJECTED DOSE PER GRAM
- % injected dose per gram ([3]; HEART, 5 MIN): 3.00 % INJECTED DOSE PER GRAM
- % injected dose per gram ([3]; HEART, 10 MIN): 2.03 % INJECTED DOSE PER GRAM
- % injected dose per gram ([3]; HEART, 15 MIN): 1.56 % INJECTED DOSE PER GRAM
- % injected dose per gram ([3]; HEART, 20 MIN): 1.24 % INJECTED DOSE PER GRAM
- % injected dose per gram ([3]; HEART, 30 MIN): 0.50 % INJECTED DOSE PER GRAM
- % injected dose per gram ([3]; KIDNEY, 3 MIN): 22.41 % INJECTED DOSE PER GRAM
- % injected dose per gram ([3]; KIDNEY, 5 MIN): 18.99 % INJECTED DOSE PER GRAM
- % injected dose per gram ([3]; KIDNEY, 10 MIN): 13.41 % INJECTED DOSE PER GRAM
- % injected dose per gram ([3]; KIDNEY, 15 MIN): 10.26 % INJECTED DOSE PER GRAM
- % injected dose per gram ([3]; KIDNEY, 20 MIN): 9.98 % INJECTED DOSE PER GRAM
- % injected dose per gram ([3]; KIDNEY, 30 MIN): 5.95 % INJECTED DOSE PER GRAM
- % injected dose per gram ([3]; LIVER, 3 MIN): 1.94 % INJECTED DOSE PER GRAM
- % injected dose per gram ([3]; LIVER, 5 MIN): 2.00 % INJECTED DOSE PER GRAM
- % injected dose per gram ([3]; LIVER, 10 MIN): 1.46 % INJECTED DOSE PER GRAM
- % injected dose per gram ([3]; LIVER, 15 MIN): 1.24 % INJECTED DOSE PER GRAM
- % injected dose per gram ([3]; LIVER, 20 MIN): 1.04 % INJECTED DOSE PER GRAM
- % injected dose per gram ([3]; LIVER, 30 MIN): 0.72 % INJECTED DOSE PER GRAM
- % injected dose per gram ([3]; LUNGS, 3 MIN): 5.48 % INJECTED DOSE PER GRAM
- % injected dose per gram ([3]; LUNGS, 5 MIN): 5.74 % INJECTED DOSE PER GRAM
- % injected dose per gram ([3]; LUNGS, 10 MIN): 4.00 % INJECTED DOSE PER GRAM
- % injected dose per gram ([3]; LUNGS, 15 MIN): 3.25 % INJECTED DOSE PER GRAM
- % injected dose per gram ([3]; LUNGS, 20 MIN): 2.59 % INJECTED DOSE PER GRAM
- % injected dose per gram ([3]; LUNGS, 30 MIN): 1.13 % INJECTED DOSE PER GRAM
- % injected dose per gram ([3]; MUSCLE, 3 MIN): 1.98 % INJECTED DOSE PER GRAM
- % injected dose per gram ([3]; MUSCLE, 5 MIN): 3.17 % INJECTED DOSE PER GRAM
- % injected dose per gram ([3]; MUSCLE, 10 MIN): 1.73 % INJECTED DOSE PER GRAM
- % injected dose per gram ([3]; MUSCLE, 15 MIN): 2.40 % INJECTED DOSE PER GRAM
- % injected dose per gram ([3]; MUSCLE, 20 MIN): 2.13 % INJECTED DOSE PER GRAM
- % injected dose per gram ([3]; MUSCLE, 30 MIN): 0.50 % INJECTED DOSE PER GRAM
- % injected dose per gram ([3]; SKIN, 3 MIN): 5.63 % INJECTED DOSE PER GRAM
- % injected dose per gram ([3]; SKIN, 5 MIN): 6.18 % INJECTED DOSE PER GRAM
- % injected dose per gram ([3]; SKIN, 10 MIN): 4.86 % INJECTED DOSE PER GRAM
- % injected dose per gram ([3]; SKIN, 15 MIN): 4.49 % INJECTED DOSE PER GRAM
- % injected dose per gram ([3]; SKIN, 20 MIN): 3.41 % INJECTED DOSE PER GRAM
- % injected dose per gram ([3]; SKIN, 30 MIN): 1.45 % INJECTED DOSE PER GRAM
- % injected dose per gram ([3]; SPLEEN, 3 MIN): 1.96 % INJECTED DOSE PER GRAM
- % injected dose per gram ([3]; SPLEEN, 5 MIN): 2.01 % INJECTED DOSE PER GRAM
- % injected dose per gram ([3]; SPLEEN, 10 MIN): 1.26 % INJECTED DOSE PER GRAM
- % injected dose per gram ([3]; SPLEEN, 15 MIN): 1.09 % INJECTED DOSE PER GRAM
- % injected dose per gram ([3]; SPLEEN, 20 MIN): 0.93 % INJECTED DOSE PER GRAM
- % injected dose per gram ([3]; SPLEEN, 30 MIN): 0.39 % INJECTED DOSE PER GRAM
- % injected dose per gram ([3]; STOMACH, 3 MIN): 2.69 % INJECTED DOSE PER GRAM
- % injected dose per gram ([3]; STOMACH, 5 MIN): 3.11 % INJECTED DOSE PER GRAM
- % injected dose per gram ([3]; STOMACH, 10 MIN): 2.35 % INJECTED DOSE PER GRAM
- % injected dose per gram ([3]; STOMACH, 15 MIN): 1.91 % INJECTED DOSE PER GRAM
- % injected dose per gram ([3]; STOMACH, 20 MIN): 1.54 % INJECTED DOSE PER GRAM
- % injected dose per gram ([3]; STOMACH, 30 MIN): 0.60 % INJECTED DOSE PER GRAM

Compound: NC12C[N]3CC[N]4CC5(NCc6ccc([N+](=O)[O-])cc6)C[N]6CC[N](C1)[Cu]3461[N](CC[N]1C5)C2 [compound (2)]
- Clearance of the complex (biodistribution, in words) [3]: clear rapidly from the system

Compound: NC12CNCCNCC(N)(CNCCNC1)CNCCNC2 [compound (1)]
- Clearance of the complex (biodistribution, in words) [3]: clear rapidly from the system

Compound: C1CNCC2CNCCNCC(CN1)CNCCNC2.[67Cu+2] [^67Cu complex of compound (4)]
- Copper lost from the chelator [4]: no more than 2%
